Values joined by “and” are separate entries in the source; they are usually repeats but may differ in a detail not shown here. Equal values may be shown once. Active and inactive are the calls of the source. How the calls were made is not given here.

In this data set the test system is rodent lifetime carcinogenesis bioassay, tumor incidence TD50. Put plainly: chronic cancer bioassays in animals – CPDB, compiled studies (AID 1745844).

Take `CC(=O)c1ccc(S(=O)(=O)NC(=O)NC2CCCCC2)cc1`: the carcinogen call reads like this: (mouse, strain B6C3F1, females, in feed, site: any site (literature study), lesion: several types, types named in the paper, dosed 103 weeks, study length 107 weeks) “negative (inactive)”; (rat, strain Fischer 344, females, in feed, site: any site (literature study), lesion: several types, types named in the paper, dosed 103 weeks, study length 106 weeks) “negative (inactive)”. For the same compound, the TD50 runs as follows: (mouse, strain B6C3F1, males, in feed, site: any site (literature study), lesion: several types, types named in the paper, dosed 103 weeks, study length 107 weeks) 2370 mg/kg/day (inactive); (rat, strain Fischer 344, males, in feed, site: all sites, lesion: leukemia, dosed 103 weeks, study length 105 weeks) 527 mg/kg/day (inactive); (rat, strain Fischer 344, males, in feed, site: any site (literature study), lesion: several types, types named in the paper, dosed 103 weeks, study length 105 weeks) 2120 mg/kg/day; (rat, strain Fischer 344, males, in feed, site: liver, lesion: hepatocellular adenoma + hepatocellular carcinoma + neoplastic nodule, dosed 103 weeks, study length 105 weeks) 16600 mg/kg/day.

Turning to `CCOc1ccc(NC(N)=O)cc1`, the TD50 (rat, strain Osborne-Mendel, both sexes, in feed, site: liver, lesion: several types, types named in the paper, dosed 104 weeks, study length 104 weeks) was 537 mg/kg/day.

On to `CC(O)c1ccccc1` (centres undefined), for which the carcinogen call (mouse, strain B6C3F1, females, by gavage, site: any site (literature study), lesion: several types, types named in the paper, dosed 103 weeks, study length 104 weeks) was “negative (inactive)”. Besides, the TD50 was 2230 mg/kg/day (inactive) (mouse, strain B6C3F1, males, by gavage, site: any site (literature study), lesion: several types, types named in the paper, dosed 103 weeks, study length 104 weeks); 826 mg/kg/day (rat, strain Fischer 344, females, by gavage, site: any site (literature study), lesion: several types, types named in the paper, dosed 103 weeks, study length 104 weeks); 8630 mg/kg/day (rat, strain Fischer 344, females, by gavage, site: liver, lesion: hepatocellular adenoma + hepatocellular carcinoma + neoplastic nodule, dosed 103 weeks, study length 104 weeks); 2300 mg/kg/day (inactive) (rat, strain Fischer 344, females, by gavage, site: pancreatic islets, lesion: islet-cell adenoma, dosed 103 weeks, study length 104 weeks); 135 mg/kg/day (rat, strain Fischer 344, males, by gavage, site: adrenal medulla, lesion: pheochromocytoma + pheochromocytoma, malignant, dosed 103 weeks, study length 104 weeks); 88.6 mg/kg/day (rat, strain Fischer 344, males, by gavage, site: any site (literature study), lesion: several types, types named in the paper, dosed 103 weeks, study length 104 weeks). For the same compound, the TD50 was 458 mg/kg/day and 944 mg/kg/day (rat, strain Fischer 344, males, by gavage, site: kidney, lesion: tubular-cell adenoma + tubular-cell adenocarcinoma, dosed 103 weeks, study length 104 weeks); 984 mg/kg/day and 564 mg/kg/day (rat, strain Fischer 344, males, by gavage, site: kidney, lesion: tubular-cell adenoma, dosed 103 weeks, study length 104 weeks); 4800 mg/kg/day (rat, strain Fischer 344, males, by gavage, site: liver, lesion: hepatocellular adenoma + hepatocellular carcinoma + neoplastic nodule, dosed 103 weeks, study length 104 weeks); 1050 mg/kg/day (rat, strain Fischer 344, males, by gavage, site: lung, lesion: alveolar/bronchiolar adenoma + alveolar/bronchiolar carcinoma, dosed 103 weeks, study length 104 weeks); 1270 mg/kg/day (rat, strain Fischer 344, males, by gavage, site: preputial gland, lesion: carcinoma, NOS, dosed 103 weeks, study length 104 weeks); 51.5 mg/kg/day (rat, strain Fischer 344, males, by gavage, site: testis, lesion: interstitial-cell tumor, dosed 103 weeks, study length 104 weeks).

In the case of `Cc1ncc([N+](=O)[O-])n1CCO`, the TD50 was 1300 mg/kg/day (mouse, strain Swiss, females, in feed, site: all sites, lesion: malignant lymphoma, dosed 122 weeks, study length 128 weeks); 24200 mg/kg/day (inactive) (mouse, strain Swiss, females, in feed, site: liver, lesion: several types, types named in the paper, dosed 122 weeks, study length 128 weeks); 937 mg/kg/day (mouse, strain Swiss, females, in feed, site: lung, lesion: several types, types named in the paper, dosed 122 weeks, study length 128 weeks); 20700 mg/kg/day (inactive) (mouse, strain Swiss, males, in feed, site: liver, lesion: several types, types named in the paper, dosed 116 weeks, study length 124 weeks); 347 mg/kg/day (mouse, strain Swiss, males, in feed, site: lung, lesion: several types, types named in the paper, dosed 116 weeks, study length 124 weeks); 139 mg/kg/day (rat, strain Sas:MRC(WI)BR, females, in feed, site: any site (literature study), lesion: several types, types named in the paper, dosed 147 weeks, study length 151 weeks). Also, the TD50 is, setting by setting: (rat, strain Sas:MRC(WI)BR, females, in feed, site: liver, lesion: hepatocellular carcinoma, dosed 147 weeks, study length 151 weeks) 1860 mg/kg/day; (rat, strain Sas:MRC(WI)BR, females, in feed, site: mammary gland, lesion: fibroadenoma, dosed 147 weeks, study length 151 weeks) 431 mg/kg/day; (rat, strain Sas:MRC(WI)BR, females, in feed, site: mammary gland, lesion: several types, types named in the paper, dosed 147 weeks, study length 151 weeks) 446 mg/kg/day; (rat, strain Sas:MRC(WI)BR, females, in feed, site: subcutaneous tissue, lesion: several types, types named in the paper, dosed 147 weeks, study length 151 weeks) 4050 mg/kg/day; (rat, strain Sas:MRC(WI)BR, females, in feed, site: uterus, lesion: several types, types named in the paper, dosed 147 weeks, study length 151 weeks) 2970 mg/kg/day (inactive); (rat, strain Sas:MRC(WI)BR, males, in feed, site: any site (literature study), lesion: several types, types named in the paper, dosed 140 weeks, study length 144 weeks) 211 mg/kg/day. For the same compound, the TD50 (rat, strain Sas:MRC(WI)BR, males, in feed, site: liver, lesion: hepatocellular carcinoma, dosed 140 weeks, study length 144 weeks) turned out to be 45900 mg/kg/day; the TD50 (rat, strain Sas:MRC(WI)BR, males, in feed, site: mammary gland, lesion: fibroadenoma, dosed 140 weeks, study length 144 weeks) was 2490 mg/kg/day; the TD50 (rat, strain Sas:MRC(WI)BR, males, in feed, site: pituitary gland, lesion: several types, types named in the paper, dosed 140 weeks, study length 144 weeks) is 731 mg/kg/day; the TD50 (rat, strain Sas:MRC(WI)BR, males, in feed, site: subcutaneous tissue, lesion: several types, types named in the paper, dosed 140 weeks, study length 144 weeks) was 2360 mg/kg/day; the TD50 (rat, strain Sas:MRC(WI)BR, males, in feed, site: testis, lesion: several types, types named in the paper, dosed 140 weeks, study length 144 weeks) was 993 mg/kg/day; the TD50 (rat, strain Sprague-Dawley, females, in feed, site: any site (literature study), lesion: several types, types named in the paper, dosed 66 weeks, study length 75 weeks) is 61.1 mg/kg/day (inactive). In addition, the TD50 (rat, strain Sprague-Dawley, females, in feed, site: uterus, lesion: adenomyoma, dosed 66 weeks, study length 75 weeks) was 180 mg/kg/day (inactive). For the same compound, the carcinogen call (rat, strain Sas:MRC(WI)BR, females, in feed, site: pituitary gland, lesion: several types, types named in the paper, dosed 147 weeks, study length 151 weeks) was “negative (inactive)”.

Consider `NNc1nc(-c2ccc([N+](=O)[O-])cc2)cs1`, for which the TD50 by setting is: (mouse, strain Swiss, females, in feed, site: all sites, lesion: lymphocytic leukemia, dosed 46 weeks, study length 66 weeks) 10.6 mg/kg/day; (mouse, strain Swiss, females, in feed, site: any site (literature study), lesion: several types, types named in the paper, dosed 46 weeks, study length 66 weeks) 8.33 mg/kg/day; (mouse, strain Swiss, females, in feed, site: lung, lesion: alveolar-cell carcinoma, dosed 46 weeks, study length 66 weeks) 25 mg/kg/day; (rat, strain Sprague-Dawley, females, in feed, site: any site (literature study), lesion: several types, types named in the paper, dosed 46 weeks, study length 75 weeks) 0.743 mg/kg/day; (rat, strain Sprague-Dawley, females, in feed, site: forestomach, lesion: squamous-cell papilloma, dosed 46 weeks, study length 75 weeks) 9 mg/kg/day; (rat, strain Sprague-Dawley, females, in feed, site: mammary gland, lesion: adenocarcinoma, dosed 45 weeks, study length 52 weeks) 9.51 mg/kg/day. The TD50 by setting is: (rat, strain Sprague-Dawley, females, in feed, site: mammary gland, lesion: adenocarcinoma, dosed 46 weeks, study length 75 weeks) 3.78 mg/kg/day; (rat, strain Sprague-Dawley, females, in feed, site: mammary gland, lesion: several types, types named in the paper, dosed 45 weeks, study length 52 weeks) 8.66 mg/kg/day; (rat, strain Sprague-Dawley, females, in feed, site: mammary gland, lesion: several types, types named in the paper, dosed 46 weeks, study length 75 weeks) 1.97 mg/kg/day; (rat, strain Sprague-Dawley, females, in feed, site: salivary gland, lesion: adenocarcinoma, dosed 45 weeks, study length 52 weeks) 21.7 mg/kg/day.

With `O=NN1CCSCC1`, the TD50 runs as follows: (rat, strain MRC, females, in drinking water, site: any site (literature study), lesion: several types, types named in the paper, dosed 38 weeks, study length 105 weeks) 7.38 mg/kg/day; (rat, strain MRC, females, in drinking water, site: esophagus, lesion: several types, types named in the paper, dosed 38 weeks, study length 105 weeks) 7.69 mg/kg/day; (rat, strain MRC, females, in drinking water, site: tongue, lesion: squamous-cell carcinoma, dosed 38 weeks, study length 105 weeks) 22 mg/kg/day; (rat, strain MRC, males, in drinking water, site: any site (literature study), lesion: several types, types named in the paper, dosed 38 weeks, study length 95 weeks) 2.29 mg/kg/day; (rat, strain MRC, males, in drinking water, site: esophagus, lesion: several types, types named in the paper, dosed 38 weeks, study length 95 weeks) 4.15 mg/kg/day.

Take `O=[N+]([O-])c1cc([N+](=O)[O-])c(Cl)c(Cl)c1Cl`: the TD50 is 52.6 mg/kg/day (mouse, strain B6AKF1, females, oral dosing, site: any site (literature study), lesion: several types, types named in the paper, dosed 76 weeks, study length 76 weeks); 108 mg/kg/day (mouse, strain B6AKF1, females, oral dosing, site: lung, lesion: adenoma, dosed 76 weeks, study length 76 weeks); 49 mg/kg/day (mouse, strain B6AKF1, males, oral dosing, site: lung, lesion: adenoma, dosed 76 weeks, study length 76 weeks); 19.8 mg/kg/day (mouse, strain B6C3F1, males, oral dosing, site: any site (literature study), lesion: several types, types named in the paper, dosed 76 weeks, study length 76 weeks).

(Values after PubChem BioAssay AID1745844 (Carcinogenic Potency Database (CPDB), 2022).)
